Experimental data reported in US20150315241A1, “Antibiotic Peptides” (priority 2007, published 2015).
Converted amounts (≈) assume the structure as drawn. Read-outs that look alike come from different tables or passages of the source. Where a SMILES comes first, the peptide text is derived from it. Where no end group is shown, it is not given here. [ ]: non-standard residue; d: D form. Hyp = O=C(O)[C@@H]1C[C@@H](O)CN1; Orn = NCCC[C@H](N)C(=O)O

How the values were obtained:
K. pneumonia 681 = type: cell-based, Klebsiella pneumoniae
Summary of the method: (§1)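 Bacteria grown overnight in NB at 37° C. were adjusted to 5×10^6 CFU/mL in 1% TSB and mixed 1:1 with a two-fold peptide series (final 125 μg/mL–60 ng/mL). After 20 hrs at 37° C., A595 was read; triplicates.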

M. luteus ATCC 10240 = type: cell-based, Micrococcus luteus
Summary of the method: as §1

B. subtilis 347 = type: cell-based, Bactillus subtillis
Summary of the method: as §1

Mycobacterium vaccae = type: cell-based
Protocol: The minimal inhibition concentrations (MIC) of the apidaecin-derived peptides and peptide-derivatives were determined by a growth inhibition assay using a serial peptide dilution in sterilized round-bottom 96-well plates (polystyrene, U-bottom, Greiner Bio-One GmbH) with a final volume of 100 μL per well. The bacteria, e.g., E. coli BL21 A1, were grown in nutrient broth (NB, Carl Roth GmbH+Co. KG, Karlsruhe, Germany) at 37° C. over night. To each well of the 96-well plate, 50 μL of the overnight culture adjusted to 5×10^6 CFU/mL in 1% TSB were added. Lyophilized peptides and peptidomimetics were dissolved in 1% TSB (tryptic soy broth) or water to give a final concentration of 250 μg/mL. Fifty μL of the peptide or peptidomimetics solution were added to the first well of a row on the plate and mixed. Fifty μL of the first well containing the peptide solution were transferred to the second well, mixed and again 50 μL transferred to the next well and so on. Thereby, a two-fold dilution series was obtained starting at 250 μg/mL in the first well down to 120 ng/mL in the 12th well of a row giving a final peptide or peptidomimetics concentration from 125 μg/mL (well 1) to 60 ng/mL (well 12). Plates were incubated at 37° C. for 20 hrs. The absorbance was measured at 595 nm using a TECAN micro plate spectrophotometer (Tecan, Germany). All peptides and peptidomimetics were measured in triplicates. Sterilized water was used as a negative control.
The bacteria strains were tested: • Eschericha coli 1103, 10233, BL 21 AI, DC 2, • Klebsiella pneumoniae 681, • Micrococcus luteus ATCC 10240, • Mycobacterium vaccae • Bactillus subtillis 347.

E. coli 1103 = type: cell-based, Escherichia coli
Summary of the method: as §1

E. coli BL 21 AI = test: Growth inhibition assay (MIC); type: cell-based, Escherichia coli; settings: 1% TSB, 37° C., 20 hrs
Summary of the method: as §1

E. coli DC 2 = test: Growth inhibition assay (MIC); type: cell-based, Escherichia coli; settings: 1% TSB, 37° C., 20 hrs
Summary of the method: as §1

K. Pneumonia 123132 = test: Growth inhibition assay (MIC); type: cell-based, Klebsiella pneumoniae
Summary of the method: (§2)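 Read-out: A595 after 20 hrs at 37° C. Bacteria from overnight NB culture, 5×10^6 CFU/mL in 1% TSB, mixed with twofold peptide dilutions (final 125 μg/mL–60 ng/mL). Triplicate wells; water negative control.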

[1] = system: K. Pneumonia K6, ATCC 700603; test: Growth inhibition assay (MIC); type: cell-based, Klebsiella pneumoniae; settings: multidrug resistant strain; 1% TSB, 37° C., 20 hrs
Summary of the method: as §2

[2] = system: R. radiobatter ATCC 15955; test: Growth inhibition assay (MIC); type: cell-based, Rhizobium radiobacter
Summary of the method: as §2

S. typhi S5 = type: cell-based, Salmonella typhi; settings: S5, 20 h
Summary of the method: as §2

[3] = system: S. enterica subsp. Enterica serovar. typhi G10215 ATCC 700408; type: cell-based, Salmonella enterica; settings: ATCC 700408, 20 h
Summary of the method: as §2

E. coli 45849 = test: Growth inhibition assay (MIC); type: cell-based, Escherichia coli
Summary of the method: as §2

E. coli D31 = type: cell-based, Escherichia coli; settings: D31, 20 h
Summary of the method: as §2

[4] = multidrug resistant strain, 1% TSB, 37° C., 20 hrs

Compound | MIC K. pneumonia 681 (K. pneumonia 681; 20 h) | MIC M. luteus ATCC 10240 (M. luteus ATCC 10240; ATCC 10240, 20 h) | MIC B. subtilis 347 (B. subtilis 347; 347, 20 h) | MIC Mycobacterium vaccae (Mycobacterium vaccae; 20 h) | MIC E. coli 1103 (E. coli 1103; 1103, 20 h) | MIC E. coli BL 21 AI (E. coli BL 21 AI) | MIC E. coli DC 2 (E. coli DC 2) | MIC K. Pneumonia K6, ATCC 700603 [1] | MIC S. typhi S5 (S. typhi S5) | MIC E. coli D31 (E. coli D31) | also measured
Ac-GNNRPVYIPRPRPPHPRL-NH2 [compound 67] | 3.9 µg/mL | 1.95 µg/mL | 125 µg/mL | 125 µg/mL | 3.9 µg/mL | 3.91 µg/mL | 3.9 µg/mL |  |  |  | 
GNNRPVYIPKPRPPHPRI-NH2 [compound 17] | 31.25 µg/mL | 0.98 µg/mL |  |  | 1.95 µg/mL | 0.98 µg/mL | 31.25 µg/mL | 32 µg/mL | 16 µg/mL | 32 µg/mL | MIC K. Pneumonia 123132 (K. Pneumonia 123132; [4]): 16 µg/mL; MIC R. radiobatter ATCC 15955 [2, 4]: 0.65 µg/mL; MIC S. enterica subsp. Enterica serovar. typhi G10215 ATCC 700408 [3]: 4 to 8 µg/mL; MIC E. coli 45849 (E. coli 45849; [4]): 8 µg/mL
H-GNNRPVYIPRPRPPHPRL-NH2 [compound 66] | 3.9 µg/mL | 1.95 µg/mL | 62.5 µg/mL | 125 µg/mL | 3.9 µg/mL | 1.95 µg/mL | 1.95 µg/mL |  |  |  | 
CC[C@H](C)[C@H](NC(=O)[C@H](CCCNC(=N)N)NC(=O)[C@@H]1CCCN1C(=O)[C@H](Cc1c[nH]cn1)NC(=O)[C@@H]1CCCN1C(=O)[C@@H]1CCCN1C(=O)[C@H](CCCNC(=N)N)NC(=O)[C@@H]1CCCN1C(=O)[C@H](CCCNC(=N)N)NC(=O)[C@@H]1CCCN1C(=O)[C@@H](NC(=O)[C@H](Cc1ccc(O)cc1)NC(=O)[C@@H](NC(=O)[C@@H]1CCCN1C(=O)[C@H](CCCNC(=N)N)NC(=O)[C@H](CC(N)=O)NC(=O)[C@H](CC(N)=O)NC(=O)[C@H](CCCN)NC(C)=O)C(C)C)[C@@H](C)CC)C(N)=O [compound 65] (Ac-[Orn]NNRPVYIPRPRPPHPRI-NH2) | 7.81 µg/mL (≈ 3.49 µM) | 0.98 µg/mL (≈ 0.439 µM) | 125 µg/mL (≈ 55.9 µM) | 62.5 µg/mL (≈ 28 µM) | 1.95 µg/mL (≈ 0.873 µM) | 0.98 µg/mL (≈ 0.439 µM) | 7.81 µg/mL (≈ 3.49 µM) |  |  |  | 
CC[C@H](C)[C@H](NC(=O)[C@H](CCCNC(=N)N)NC(=O)[C@@H]1CCCN1C(=O)[C@H](Cc1c[nH]cn1)NC(=O)[C@@H]1CCCN1C(=O)[C@@H]1CCCN1C(=O)[C@H](CCCNC(=N)N)NC(=O)[C@@H]1CCCN1C(=O)[C@H](CCCN)NC(=O)[C@@H]1CCCN1C(=O)[C@@H](NC(=O)[C@H](Cc1ccc(O)cc1)NC(=O)[C@@H](NC(=O)[C@@H]1CCCN1C(=O)[C@H](CCCNC(=N)N)NC(=O)[C@H](CC(N)=O)NC(=O)[C@H](CC(N)=O)NC(=O)CN)C(C)C)[C@@H](C)CC)C(N)=O [compound 9] (H-GNNRPVYIP[Orn]PRPPHPRI-NH2) |  |  |  |  |  | 0.49 µg/mL (≈ 0.234 µM) | 1.95 µg/mL (≈ 0.931 µM) | 16 µg/mL (≈ 7.64 µM) | 2 µg/mL (≈ 0.955 µM) | 16 µg/mL (≈ 7.64 µM) | MIC K. pneumonia 681 (K. pneumonia 681; 1% TSB, 37° C., 20 hrs): 3.9 µg/mL (≈ 1.86 µM); MIC M. luteus ATCC 10240 (M. luteus ATCC 10240; 1% TSB, 37° C., 20 hrs): 1.95 µg/mL (≈ 0.931 µM); MIC K. Pneumonia 123132 (K. Pneumonia 123132; 20 h): 8 µg/mL (≈ 3.82 µM); MIC B. subtilis 347 (B. subtilis 347; 1% TSB, 37° C., 20 hrs): >125 µg/mL; MIC R. radiobatter ATCC 15955 ([2]; ATCC 15955, 20 h): <0.16 µg/mL; MIC Mycobacterium vaccae (Mycobacterium vaccae; 1% TSB, 37° C., 20 hrs): 125 µg/mL (≈ 59.7 µM); MIC E. coli 1103 (E. coli 1103; 1% TSB, 37° C., 20 hrs): 3.9 µg/mL (≈ 1.86 µM); MIC E. coli 45849 (E. coli 45849; 45849, 20 h): 1 µg/mL (≈ 0.478 µM)
H-GNNKPVYIPRPRPPHPRLV-NH2 [compound 68] | 31.25 µg/mL | 0.24 µg/mL | >125 µg/mL | 125 µg/mL | 3.9 µg/mL | 7.81 µg/mL | 7.81 µg/mL |  |  |  | 
CC[C@H](C)[C@H](NC(=O)[C@H](Cc1ccc(O)cc1)NC(=O)[C@@H](NC(=O)[C@@H]1CCCN1C(=O)[C@H](CCCNC(=N)N)NC(=O)[C@H](CC(N)=O)NC(=O)[C@H](CC(N)=O)NC(=O)CN)C(C)C)C(=O)N1CCC[C@H]1C(=O)N[C@@H](CCCNC(=N)N)C(=O)N1C[C@H](O)C[C@H]1C(=O)N[C@@H](CCCNC(=N)N)C(=O)N1CCC[C@H]1C(=O)N1CCC[C@H]1C(=O)N[C@@H](Cc1c[nH]cn1)C(=O)N1CCC[C@H]1C(=O)N[C@@H](CCCNC(=N)N)C(=O)N[C@@H](CC(C)C)C(N)=O [compound 20] (H-GNNRPVYIPR[Hyp]RPPHPRL-NH2) | 3.9 µg/mL (≈ 1.81 µM) | 1.95 µg/mL (≈ 0.906 µM) | >125 µg/mL | 125 µg/mL (≈ 58.1 µM) | 3.9 µg/mL (≈ 1.81 µM) | 0.49 µg/mL (≈ 0.228 µM) | 1.95 to 3.91 µg/mL | 8 µg/mL (≈ 3.72 µM) | <0.5 µg/mL | 32 µg/mL (≈ 14.9 µM) | MIC K. Pneumonia 123132 (K. Pneumonia 123132; [4]): 4 µg/mL (≈ 1.86 µM); MIC R. radiobatter ATCC 15955 [2, 4]: 0.33 µg/mL (≈ 0.153 µM); MIC E. coli 45849 (E. coli 45849; [4]): 1 µg/mL (≈ 0.465 µM)
CC[C@H](C)[C@H](NC(=O)[C@H](CCCNC(=N)N)NC(=O)[C@@H]1CCCN1C(=O)[C@H](Cc1c[nH]cn1)NC(=O)[C@@H]1CCCN1C(=O)[C@@H]1CCCN1C(=O)[C@H](CCCNC(=N)N)NC(=O)[C@@H]1C[C@@H](O)CN1C(=O)[C@H](CCCNC(=N)N)NC(=O)[C@@H]1CCCN1C(=O)[C@@H](NC(=O)[C@H](Cc1ccc(O)cc1)NC(=O)[C@@H](NC(=O)[C@@H]1CCCN1C(=O)[C@H](CCCNC(=N)N)NC(=O)[C@H](CC(N)=O)NC(=O)[C@H](CC(N)=O)NC(=O)CN)C(C)C)[C@@H](C)CC)C(N)=O [compound 15] (H-GNNRPVYIPR[Hyp]RPPHPRI-NH2) | 3.9 µg/mL (≈ 1.81 µM) | 1.95 µg/mL (≈ 0.906 µM) | >125 µg/mL | 125 µg/mL (≈ 58.1 µM) | 1.95 µg/mL (≈ 0.906 µM) |  |  |  | 2 µg/mL (≈ 0.93 µM) | 64 µg/mL (≈ 29.7 µM) | MIC S. enterica subsp. Enterica serovar. typhi G10215 ATCC 700408 [3]: 2 µg/mL (≈ 0.93 µM)
